Columns and labels:
[1] = xn = mol fraction of the nth substance listed; conditions: 303.15 K, 101.3 kPa, Liquid; for speed of sound: Linear variable-path acoustic interferometer
[2] = 303.15 K, 101.3 kPa, Liquid; for speed of sound: Linear variable-path acoustic interferometer

CCOC(=O)C(Br)C(=O)OCC [diethyl bromomalonate] + ClC(Cl)Cl
[1]
Conditions	mass density [kg/m3]	speed of sound [m/s]	viscosity [mPa·s]
x1 = 0.098	1460.41	989	0.709
x1 = 0.1971	1450.47	1010	0.941
x1 = 0.296	1441.28	1032	1.2
x1 = 0.4033	1432.36	1054	1.507
x1 = 0.5045	1424.91	1075	1.84
x1 = 0.5919	1419.12	1092	2.141
x1 = 0.6911	1413.32	1112	2.501
x1 = 0.7991	1407.82	1131	2.899
x1 = 0.8997	1403.21	1149	3.253

CCOC(=O)CCl [ethyl chloroethanoate]
[2]
Conditions	mass density [kg/m3]	speed of sound [m/s]	viscosity [mPa·s]
–	1139.18	1227	1.275

CCOC(=O)CCl [ethyl chloroethanoate] + ClC(Cl)(Cl)Cl
[1]
Conditions	mass density [kg/m3]	speed of sound [m/s]	viscosity [mPa·s]
x1 = 0.095	1530.01	933	0.853
x1 = 0.1992	1481.59	964	0.862
x1 = 0.298	1436.61	994	0.862
x1 = 0.3972	1392.26	1025	0.87
x1 = 0.5	1347.02	1058	0.891
x1 = 0.5978	1304.82	1089	0.928
x1 = 0.6984	1262.23	1123	0.967
x1 = 0.8044	1218.14	1158	1.021
x1 = 0.8978	1180.11	1191	1.113
x1 = 1	1139.18	1227	1.275

CCOC(=O)CCl [ethyl chloroethanoate] + ClC(Cl)Cl
[1]
Conditions	mass density [kg/m3]	speed of sound [m/s]	viscosity [mPa·s]
x1 = 0.0989	1429.89	990	0.617
x1 = 0.1945	1392.15	1014	0.687
x1 = 0.2954	1354.22	1038	0.759
x1 = 0.3905	1320.14	1062	0.806
x1 = 0.5048	1281.24	1091	0.852
x1 = 0.6012	1250.32	1115	0.9
x1 = 0.6875	1223.93	1137	0.943
x1 = 0.7658	1201.01	1159	0.989
x1 = 0.8992	1164.5	1198	1.114

ClC(Cl)(Cl)Cl [tetrachloromethane]
[2]
Conditions	mass density [kg/m3]	speed of sound [m/s]	viscosity [mPa·s]
–	1574.82	905	0.844

ClC(Cl)(Cl)Cl [tetrachloromethane] + CCOC(=O)CCl
[1], x2 = 0
Conditions	mass density [kg/m3]	speed of sound [m/s]	viscosity [mPa·s]
–	1574.82	905	0.844

ClC(Cl)Cl [trichloromethane]
[2]
Conditions	mass density [kg/m3]	speed of sound [m/s]
–	1470.59	967

Conditions	viscosity [mPa·s]
[2], Capillary tube (Ostwald / Ubbelohde) method	0.512

ClC(Cl)Cl [trichloromethane] + CCOC(=O)CCl
[1], x2 = 0
Conditions	mass density [kg/m3]	speed of sound [m/s]	viscosity [mPa·s]
–	1470.59	967	0.512

Reference: the NIST ThermoML archive (doi:10.1016/j.tca.2004.07.014)
